One test relates to RCCM cells. The test can be described thus: Proliferation of RCCM cells, 3H-thymidine uptake. It is filed as cell-based, mouse. Conditions: 48 hours culture, then 12 hours 3H-thymidine; for proliferation of RCCM cells in response to inhibitor (uptake amount of 3H-thymidine): 1/2 serial dilutions starting with 10 ng/ml. How it is done: (§1) R cells, N62.5 cells, or RCCM cells obtained in Example 1 were placed in each well of a 96-well microplate at a seeding density of 1.5×10^4 cells/well. A culture medium in which the content of RCGF was changed was used and the sensitivities of the cells to RCGF were confirmed.
(§2) The concentrations of RCGF were set to 10 v/v %, 0.1 v/v %, and 0 v/v %. The cells were cultured in an RPMI 1640 culture medium containing 10% by volume of serum at 37° C. in 5% CO2 atmosphere for 48 hours. Thereafter, ^3H-thymidine was added to the culture medium so as to give a final concentration of 0.5 μCi/ml, and the resultant was further cultured for 12 hours and the uptake amount of ^3H during the time was measured. After the reaction, the uptake amount of ^3H-thymidine was measured using MicroBeta TRIL UX (manufactured by WALLAC). In FIGS. 1 (A) to (C), black rhombuses indicate RCCM cells, black squares indicate R cells, and black triangles indicate N62.5 cells.
R cells, N62.5 cells, or RCCM cells obtained in Example 1 were placed in each well of a 96-well microplate at a seeding density of 1.5×10^4 cells/well.
(§3) In this regard, the concentration of RCGF was based on ½ serial dilutions (starting with 80% by volume of the culture medium). […] Thereafter, ^3H-thymidine was added to the culture medium so as to give a final concentration of 0.5 μCi/ml, and the resultant was further cultured for 12 hours and the uptake amount of ^3H during the time was measured. […]
R cells, N62.5 cells, or RCCM cells obtained in Example 1 were placed in each well of a 96-well microplate at a seeding density of 1.5×10^4 cells/well in the same manner as described in Example 4. ½ serial dilutions (starting with 10 ng/ml) of phorbol 12-myristate 13 acetate (PMA) were added to each well, and culturing was performed at 37° C. in 5% CO2 atmosphere for 48 hours. Thereafter, ^3H-thymidine was added to the culture medium so as to give a final concentration of 0.5 μCi/ml, which was further cultured for 12 hours and the uptake amount of ^3H during the time was measured. […]

The test system of another test is R cells. The test is described as follows: Proliferation of R cells, 3H-thymidine uptake. It counts as cell-based, mouse. Conditions: 1/2 serial dilutions starting with 10 ng/ml; 48 hours culture, then 12 hours 3H-thymidine. On the procedure:
as §1
as §2, with “cells. […]” for “cells.”
as §3

Another test concerns N62.5 cells. The test can be described thus: Proliferation of N62.5 cells, 3H-thymidine uptake. Conditions: 48 hours culture, then 12 hours 3H-thymidine. It counts as cell-based, mouse. On the procedure:
as §1
as §2, with “cells. […]” for “cells.”
as §3

For the next test, the system named is P185 cells. The test can be described thus: Proliferation of P185 cells (basophil-like cell line), 3H-thymidine uptake. It is filed as cell-based. Conditions: 1/2 serial dilutions starting with 10 ng/ml; 48 hours culture, then 12 hours 3H-thymidine. How it is done:
R cells, N62.5 cells, or RCCM cells obtained in Example 1 and P185 cells (a basophil-like cell line) were placed in each well of a 96-well microplate at a seeding density of 1.5×10^4 cells/well in the same manner as described in Example 4. ½ serial dilutions (starting with 10 ng/ml) of LY294002 (a PI3K inhibitor; Cat No. FA-002, manufactured by SuperArray) and Rottlerin (a PKC inhibitor; Cat No. 557370, manufactured by CALBIOCHEM) were added to each well, which was cultured at 37° C. in a 5% CO2 atmosphere for 48 hours. Thereafter, ^3H-thymidine was added to the culture medium so as to give a final concentration of 0.5 μCi/ml, and culturing was further performed for 12 hours and the uptake amount of ^3H during the time was measured. In FIGS. 7 and 8, black squares indicate R cells, black triangles indicate N62.5 cells, black rhombuses indicate RCCM cells, and black circles indicate P185. FIG. 7 is a graph showing the response of respective cells to LY294002. FIG. 8 is a graph showing the response of respective cells to Rottlerin.

The next test relates to R cell. The test is described as follows: Maintenance / growth potential of R cells in culture with cytokines or RCGF. It is filed as cell-based, mouse. On the procedure:
Further, anti-Thy1.2 antibodies (manufactured by Pharmingen) and complement (rabbit serum, manufactured by Pel-Freeze) were respectively added to the resulting culture at 1 μg/ml and at a final concentration of 10% by volume per 1×10^7 cells/100 μl. After about 30 minutes of reaction, […] therefrom and the cultivation was continued while the RCGF was added at various concentrations.
Thereafter, respective cell lines were cultured in accordance with the dilution method over the course of three weeks and cloned.

As for `CCCCCCCCCCCCCC(=O)O[C@@H]1[C@@H](C)[C@@]2(O)[C@@H](C=C(CO)C[C@]3(O)C(=O)C(C)=C[C@@H]23)[C@@H]2C(C)(C)[C@]12OC(C)=O` [PMA, phorbol 12-myristate 13 acetate], in the test with RCCM cells, the “proliferation of RCCM cells in response to inhibitor (uptake amount of 3H-thymidine)” value was “suppressed by a low concentration”.

With `CC(=O)c1c(O)c(C)c(O)c(Cc2c(O)c3c(c(C(=O)/C=C/c4ccccc4)c2O)OC(C)(C)C=C3)c1O` [Rottlerin], the “proliferation of RCCM cells in response to inhibitor (uptake amount of 3H-thymidine)” value with RCCM cells is on record as “rapidly suppressed”. Also, the “proliferation of R cells in response to inhibitor (uptake amount of 3H-thymidine)” value in the test on R cells is “rapidly suppressed”. Besides, the “proliferation of N62.5 cells in response to inhibitor (uptake amount of 3H-thymidine)” value with N62.5 cells (1/2 serial dilutions starting with 10 ng/ml) is given as “rapidly suppressed”. The “proliferation of basophil-like cell line P185 in response to inhibitor (uptake amount of 3H-thymidine)” value in the test with P185 cells was “growth inhibition”.

As to GM-CFS: cytokine, in the test on R cell, the “sensitivity / growth potential of R cell against cytokine” value (shortened to “sensitivity / growth potential”) is “does not show sensitivity”.

Turning to IFN-γ: cytokine, the “sensitivity / growth potential” value with R cell was “does not show sensitivity”.

For IL-5: interleukin, Th2 type cytokine, the “sensitivity / growth potential” value in the test with R cell is recorded as “high growth potential”.

Take IL-6: interleukin, Th2 type cytokine: the “sensitivity / growth potential” value in the test with R cell is recorded as “high growth potential”.

Regarding IL-9: interleukin, Th2 type cytokine, the “sensitivity / growth potential” value in the test on R cell is “high growth potential”.

IL-13: interleukin, Th2 type cytokine: the “sensitivity / growth potential” value with R cell is recorded as “high growth potential”.

B1: IL-7: cytokine (protein, UniProt P13232 26-177, looked up)
Interleukin-7: DCDIEGKDGKQYESVLMVSIDQLLDSMKEIGSNCLNNEFNFFKRHICDANKEGMFLFRAARKLRQFLKMNSTGDFDLHLLKVSEGTTILLNCTGQVKGRKPAALGEAQPTKSLEENKSLKEQKKLNDLCFLKRLLQEIKTCWNKILMGTKEH
With B1, the “sensitivity / growth potential” value in the test with R cell was “does not show sensitivity”.

B2: IL-10: cytokine (protein, UniProt P22301 19-178, looked up)
Interleukin-10: SPGQGTQSENSCTHFPGNLPNMLRDLRDAFSRVKTFFQMKDQLDNLLLKESLLEDFKGYLGCQALSEMIQFYLEEVMPQAENQDPDIKAHVNSLGENLKTLRLRLRRCHRFLPCENKSKAVEQVKNAFNKLQEKGIYKAMSEFDIFINYIEAYMTMKIRN
With B2, in the test with R cell, the “sensitivity / growth potential” value was “does not show sensitivity”.

B3: IL-4: recombinant cytokine, manufactured by PeproTech (protein, UniProt P05112 25-153, looked up)
Interleukin-4: HKCDITLQEIIKTLNSLTEQKTLCTELTVTDIFAASKNTTEKETFCRAATVLRQFYSHHEKDTRCLGATAQQFHRHKQLIRFLKRLDRNLWGLAGLNSCPVKEANQSTLENFLERLKTIMREKYSKCSS
Turning to B3, in the test on RCCM cells (various concentrations), the “proliferative response of RCCM cells to RCGF / cytokines (uptake amount of 3H-thymidine)” value is “no difference in growth potential”. Moreover, the “proliferative response of N62.5 cells to RCGF / cytokines (uptake amount of 3H-thymidine)” value in the test on N62.5 cells (various concentrations) was “did not show sensitivity”. In addition, the “sensitivity / growth potential” value in the test on R cell is on record as “high growth potential”.

Source of the values: patent publication US8148058B2, “Method for screening allergic disease-related molecule and cell lines to be used in the method” (Tokyo University of Science Educational Foundation …, priority 2006, dated 2012).
